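Grown in 96-well plates, cells were treated for 48 hours with each compound at five concentrations. Insufficient inhibition: endpoint recorded as highest concentration tested. At the TGI there is no net growth.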

For one experiment, the system named is IGROV1 ovarian. Kind of experiment: inhibition of tumour cell growth, NCI panel, 48 h.
`CCOC(=O)C1C(=O)CC(O)(c2ccccc2)C(C(=O)OCC)C1c1ccc(OC)cc1` (stereo not given) yielded a TGI of over 100 µM.
The same measure, in the same setting: next, `CCOC(=O)c1c(N)n(-c2ccccc2)c(=S)n(-c2ccccc2)c1=O`: over 100 µM; `COC(=O)CCCC(=O)C(=Nc1c(Cl)cccc1Cl)NNc1ccc(Cl)cc1`: over 100 µM.
The same measure, in the same setting: next, `C=CC/C(C(=O)OC)=C(/C(=O)OC)N(CCC)CCC`: over 100 µM; `N#CC(C#N)=C1CCCS(=O)(=O)c2ccccc21`: over 100 µM.

A further experiment relates to HS 578T breast. Kind of experiment: inhibition of tumour cell growth, NCI panel, 48 h.
For the compound `CCOC(=O)C1C(=O)CC(O)(c2ccccc2)C(C(=O)OCC)C1c1ccc(OC)cc1` (stereo not given), the TGI was 53.7 µM.
Take `CCOC(=O)c1c(N)n(-c2ccccc2)c(=S)n(-c2ccccc2)c1=O`: the TGI is over 100 µM.
Still for that read-out and setting: next, `COC(=O)CCCC(=O)C(=Nc1c(Cl)cccc1Cl)NNc1ccc(Cl)cc1`: over 100 µM; `C=CC/C(C(=O)OC)=C(/C(=O)OC)N(CCC)CCC`: over 100 µM.
For the compound `N#CC(C#N)=C1CCCS(=O)(=O)c2ccccc21`, the TGI was over 100 µM.

The test system of another experiment is SR leukemia. Kind of experiment: inhibition of tumour cell growth, NCI panel, 48 h.
Regarding `CCOC(=O)C1C(=O)CC(O)(c2ccccc2)C(C(=O)OCC)C1c1ccc(OC)cc1` (stereo not given), the TGI worked out at 32.5 µM.
In turn, `CCOC(=O)c1c(N)n(-c2ccccc2)c(=S)n(-c2ccccc2)c1=O` came in with a TGI of over 100 µM.
On to `COC(=O)CCCC(=O)C(=Nc1c(Cl)cccc1Cl)NNc1ccc(Cl)cc1`, for which the TGI was over 100 µM.
On the same count and under the same terms, next, `C=CC/C(C(=O)OC)=C(/C(=O)OC)N(CCC)CCC`: 55.3 µM; `N#CC(C#N)=C1CCCS(=O)(=O)c2ccccc21`: over 100 µM.

The test system of another experiment is SF-295 CNS. In words: inhibition of tumour cell growth, NCI panel, 48 h.
For the compound `CCOC(=O)C1C(=O)CC(O)(c2ccccc2)C(C(=O)OCC)C1c1ccc(OC)cc1` (stereo not given), the TGI amounted to 17.5 µM.
On the same count and under the same terms, next, `CCOC(=O)c1c(N)n(-c2ccccc2)c(=S)n(-c2ccccc2)c1=O`: over 100 µM; `COC(=O)CCCC(=O)C(=Nc1c(Cl)cccc1Cl)NNc1ccc(Cl)cc1`: over 100 µM; `C=CC/C(C(=O)OC)=C(/C(=O)OC)N(CCC)CCC`: over 100 µM.
On the same count and under the same terms, next, `N#CC(C#N)=C1CCCS(=O)(=O)c2ccccc21`: over 100 µM.

The test system of a further experiment is A549 NSCLC. Kind of experiment: inhibition of tumour cell growth, NCI panel, 48 h.
`CCOC(=O)C1C(=O)CC(O)(c2ccccc2)C(C(=O)OCC)C1c1ccc(OC)cc1` (stereo not given) displayed a TGI of over 100 µM.
On the same count and under the same terms, the figure for `CCOC(=O)c1c(N)n(-c2ccccc2)c(=S)n(-c2ccccc2)c1=O` is over 100 µM; for `COC(=O)CCCC(=O)C(=Nc1c(Cl)cccc1Cl)NNc1ccc(Cl)cc1` it is over 100 µM.
Still for that read-out and setting: next, `C=CC/C(C(=O)OC)=C(/C(=O)OC)N(CCC)CCC`: over 100 µM.
Consider `N#CC(C#N)=C1CCCS(=O)(=O)c2ccccc21`, for which the TGI was over 100 µM.

In the next experiment the test system is COLO 205 colon. In words: inhibition of tumour cell growth, NCI panel, 48 h.
For `CCOC(=O)C1C(=O)CC(O)(c2ccccc2)C(C(=O)OCC)C1c1ccc(OC)cc1` (stereo not given), the TGI amounted to 47.9 µM.
`CCOC(=O)c1c(N)n(-c2ccccc2)c(=S)n(-c2ccccc2)c1=O`: the TGI is over 100 µM.
On the same count and under the same terms, the figure for `COC(=O)CCCC(=O)C(=Nc1c(Cl)cccc1Cl)NNc1ccc(Cl)cc1` is 82.4 µM; for `C=CC/C(C(=O)OC)=C(/C(=O)OC)N(CCC)CCC` it is over 100 µM.
On the same count and under the same terms, next, `N#CC(C#N)=C1CCCS(=O)(=O)c2ccccc21`: over 100 µM.

The next experiment has as its system K-562 leukemia. Kind of experiment: inhibition of tumour cell growth, NCI panel, 48 h.
`CCOC(=O)C1C(=O)CC(O)(c2ccccc2)C(C(=O)OCC)C1c1ccc(OC)cc1` (stereo not given) displayed a TGI of over 83.4 µM.
On the same count and under the same terms, next, `CCOC(=O)c1c(N)n(-c2ccccc2)c(=S)n(-c2ccccc2)c1=O`: over 100 µM; `COC(=O)CCCC(=O)C(=Nc1c(Cl)cccc1Cl)NNc1ccc(Cl)cc1`: over 100 µM; `C=CC/C(C(=O)OC)=C(/C(=O)OC)N(CCC)CCC`: over 100 µM.
`N#CC(C#N)=C1CCCS(=O)(=O)c2ccccc21` registered a TGI of over 100 µM.

A further experiment has as its system HT29 colon. Kind of experiment: inhibition of tumour cell growth, NCI panel, 48 h.
`CCOC(=O)C1C(=O)CC(O)(c2ccccc2)C(C(=O)OCC)C1c1ccc(OC)cc1` (stereo not given) returned a TGI of 35.9 µM.
For the compound `CCOC(=O)c1c(N)n(-c2ccccc2)c(=S)n(-c2ccccc2)c1=O`, the TGI was over 100 µM.
The same measure, in the same setting: next, `COC(=O)CCCC(=O)C(=Nc1c(Cl)cccc1Cl)NNc1ccc(Cl)cc1`: over 100 µM; `C=CC/C(C(=O)OC)=C(/C(=O)OC)N(CCC)CCC`: over 100 µM.
The same measure, in the same setting: the figure for `N#CC(C#N)=C1CCCS(=O)(=O)c2ccccc21` is over 100 µM.

The next experiment concerns CCRF-CEM leukemia. In words: inhibition of tumour cell growth, NCI panel, 48 h.
Turning to `CCOC(=O)C1C(=O)CC(O)(c2ccccc2)C(C(=O)OCC)C1c1ccc(OC)cc1` (stereo not given), the TGI was 79.2 µM.
On the same count and under the same terms, the figure for `CCOC(=O)c1c(N)n(-c2ccccc2)c(=S)n(-c2ccccc2)c1=O` is over 100 µM; for `COC(=O)CCCC(=O)C(=Nc1c(Cl)cccc1Cl)NNc1ccc(Cl)cc1` it is 75.3 µM.
Still for that read-out and setting: next, `C=CC/C(C(=O)OC)=C(/C(=O)OC)N(CCC)CCC`: over 100 µM; `N#CC(C#N)=C1CCCS(=O)(=O)c2ccccc21`: over 100 µM.

The subject of a further experiment is HOP-92 NSCLC. In words: inhibition of tumour cell growth, NCI panel, 48 h.
As to `CCOC(=O)C1C(=O)CC(O)(c2ccccc2)C(C(=O)OCC)C1c1ccc(OC)cc1` (stereo not given), the TGI was over 82 µM.
As for `CCOC(=O)c1c(N)n(-c2ccccc2)c(=S)n(-c2ccccc2)c1=O`, the TGI is over 100 µM.
Still for that read-out and setting: next, `COC(=O)CCCC(=O)C(=Nc1c(Cl)cccc1Cl)NNc1ccc(Cl)cc1`: over 100 µM.
In the case of `C=CC/C(C(=O)OC)=C(/C(=O)OC)N(CCC)CCC`, the TGI is over 100 µM.
`N#CC(C#N)=C1CCCS(=O)(=O)c2ccccc21` showed a TGI of over 100 µM.

A further experiment has as its system BT-549 breast. Kind of experiment: inhibition of tumour cell growth, NCI panel, 48 h.
Turning to `CCOC(=O)C1C(=O)CC(O)(c2ccccc2)C(C(=O)OCC)C1c1ccc(OC)cc1` (stereo not given), the TGI is over 100 µM.
For `CCOC(=O)c1c(N)n(-c2ccccc2)c(=S)n(-c2ccccc2)c1=O`, the TGI was over 100 µM.
The same measure, in the same setting: the figure for `COC(=O)CCCC(=O)C(=Nc1c(Cl)cccc1Cl)NNc1ccc(Cl)cc1` is over 100 µM; for `C=CC/C(C(=O)OC)=C(/C(=O)OC)N(CCC)CCC` it is over 100 µM; for `N#CC(C#N)=C1CCCS(=O)(=O)c2ccccc21` it is over 100 µM.

For the origin of these results see PubChem BioAssay (NCI).
